Some test systems named below: SF-539; MDA-MB-231; 786-0; HCT-15; IGROV-1; SF-268; Malme-3M; HT-29; MOLT-4; NCI-H226; RPMI-8226; A549; HCC 2998; SK-MEL-28; COLO 205; SK-MEL-2; A498; SF-295; UACC-257; SNB-19.
Common to all, as to assay: NCI-60 cell line screen, 48 h

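The compound was tested at five concentrations on cells cultured in 96-well plates, with a 48-hour exposure period. GI50 is the concentration that inhibits growth by half.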 Activity calls are given as the source filed them. Rule as the data show it: active = GI50 up to about 1.1 µM and inactive = higher. A value given as a limit tells only on which side of the number the result lay.

The source of these data is ChEMBL document CHEMBL1201862, “PubChem BioAssay data set” (2004).

With `COC(=O)C1=NN2c3ccccc3C(=O)OCCC2(C)C1` (configuration not stated), the GI50 in the assay on SF-539 was > 100 µM (inactive); in the assay on MDA-MB-231, > 100 µM (inactive); in the assay on 786-0 it was > 100 µM (inactive); with HCT-15, greater than 100 µM; in the assay with IGROV-1, > 100 µM (inactive); in the assay with SF-268, > 100 µM (inactive). Further, the GI50 in the assay on Malme-3M, with HT-29, with MOLT-4, with NCI-H226, in the assay on RPMI-8226 and in the assay with A549 was > 100 µM (inactive) in each case. In addition, the GI50 in the assay with HCC 2998, in the assay on SK-MEL-28, in the assay on COLO 205, with SK-MEL-2, in the assay with A498 and in the assay on SF-295 was > 100 µM (inactive) throughout.
In the case of `Nn1c(CCCCCCCCc2nnc(COc3ccc4ccccc4c3O)n2N)nnc1COc1ccc2ccccc2c1O`, the GI50 in the assay on MDA-MB-231 is 23.2 µM (inactive); in the assay on 786-0, 33.9 µM (inactive); in the assay with HCT-15, 22.3 µM; in the assay on IGROV-1, 4.92 µM (inactive); with SF-268 it was 29.8 µM (inactive); in the assay with Malme-3M, 4.48 µM (inactive). Further, the GI50 in the assay on HT-29 is 25.3 µM (inactive); in the assay on MOLT-4 it was 14.9 µM (inactive); in the assay on NCI-H226, 17.9 µM (inactive); in the assay with UACC-257 it was 39.9 µM (inactive); with RPMI-8226 it was 22.3 µM (inactive); in the assay on A549, 25.1 µM (inactive). Besides, the GI50 is 25.2 µM (inactive) in the assay on HCC 2998; 32.4 µM (inactive) with SK-MEL-28; 19.5 µM (inactive) in the assay with COLO 205; 30 µM (inactive) in the assay with SNB-19; 32.1 µM (inactive) in the assay on SK-MEL-2; 35.8 µM (inactive) with A498. In addition, the GI50 in the assay on SF-295 was 28.6 µM (inactive).
`COc1ccc(-n2c(CCC(=O)O)nc3c2C(=O)c2ccccc2C3=O)cc1`: the GI50 was > 100 µM (inactive) in the assay with SF-539; > 100 µM (inactive) in the assay on MDA-MB-231; > 100 µM (inactive) in the assay on 786-0; greater than 100 µM in the assay on HCT-15; > 100 µM (inactive) in the assay on SF-268; > 100 µM (inactive) with HT-29. In addition, the GI50 in the assay on MOLT-4, in the assay with NCI-H226, with UACC-257, with RPMI-8226, in the assay on A549 and in the assay on HCC 2998 was > 100 µM (inactive) throughout. The GI50 was > 100 µM (inactive) in the assay with SK-MEL-28; > 100 µM (inactive) with COLO 205; > 100 µM (inactive) in the assay on SNB-19; 88.1 µM (inactive) in the assay with SK-MEL-2; > 100 µM (inactive) with A498; > 100 µM (inactive) in the assay with SF-295.
`CCN(CC)CCOC(=O)CCN1CC2CCC(CC2)C1`: the GI50 with SF-539 was > 100 µM (inactive); in the assay with MDA-MB-231 it was > 100 µM (inactive); in the assay on 786-0, > 100 µM (inactive); in the assay on HCT-15 it was greater than 100 µM; in the assay with IGROV-1, > 100 µM (inactive); in the assay on Malme-3M, > 100 µM (inactive). In addition, the GI50 in the assay with HT-29, with MOLT-4, in the assay with NCI-H226, in the assay on UACC-257, in the assay on RPMI-8226 and in the assay with A549 was > 100 µM (inactive) in each case. In addition, the GI50 in the assay with HCC 2998, in the assay on SK-MEL-28, in the assay on COLO 205, in the assay with SNB-19, in the assay with SK-MEL-2 and in the assay on A498 was > 100 µM (inactive) in each case. In addition, the GI50 in the assay on SF-295 was > 100 µM (inactive).
For the compound `O=C(Oc1c(Cl)cc(C2(c3cc(Cl)c(OC(=O)c4ccccc4)c(Cl)c3)CCCCC2)cc1Cl)c1ccccc1`, the GI50 with SF-539 is 14.3 µM (inactive); in the assay on MDA-MB-231, 13.7 µM (inactive); in the assay on 786-0, 14.1 µM (inactive); with HCT-15 it was 11.9 µM; in the assay with IGROV-1 it was 10.6 µM (inactive); in the assay on SF-268, 12.6 µM (inactive). The GI50 with HT-29 was 14.6 µM (inactive); with MOLT-4, 5 µM (inactive); in the assay with NCI-H226, 16.3 µM (inactive); in the assay on UACC-257, 12.7 µM (inactive); in the assay with RPMI-8226 it was 11.9 µM (inactive); in the assay with A549 it was 12.3 µM (inactive). Further, the GI50 was 10.1 µM (inactive) with HCC 2998; 14.7 µM (inactive) in the assay on SK-MEL-28; 5.78 µM (inactive) with COLO 205; 17.6 µM (inactive) in the assay on SNB-19; 11.2 µM (inactive) in the assay on SK-MEL-2; 11.4 µM (inactive) in the assay on A498. The GI50 in the assay on SF-295 was 13.4 µM (inactive).
On to `N[C@H]1CCN(c2c(F)cc3c(=O)c(C(=O)O)cn4c3c2Oc2cc3c(ccc5ccccc53)cc2-4)C1`, for which the GI50 is 1.7 µM (inactive) in the assay on SF-539; 0.014 µM (active) in the assay with MDA-MB-231; 2.88 µM (inactive) in the assay on 786-0; 3.98 µM with HCT-15; 2.59 µM (inactive) in the assay on IGROV-1; 4.43 µM (inactive) in the assay with Malme-3M. The GI50 in the assay with HT-29 is 3.08 µM (inactive); in the assay with MOLT-4 it was 1.45 µM (inactive); with NCI-H226, 2.58 µM (inactive); with UACC-257, 4.9 µM (inactive); in the assay on RPMI-8226, 1.58 µM (inactive); with A549, 3.87 µM (inactive). Moreover, the GI50 in the assay on HCC 2998 is 1.99 µM (inactive); with COLO 205, 2.75 µM (inactive); with SNB-19, 5.81 µM (inactive); in the assay with SK-MEL-2, 2.96 µM (inactive); in the assay on A498, 3.56 µM (inactive); with SF-295, 2.98 µM (inactive).
In the case of `CC(=O)OCC1OC(O/C=C(\CN=[N+]=[N-])C(C)=O)C(OC(C)=O)C(OC(C)=O)C1OC(C)=O` (configuration not stated), the GI50 is 12.7 µM (inactive) with MDA-MB-231; 5.38 µM (inactive) with 786-0; 3.94 µM with HCT-15; 15.6 µM (inactive) in the assay on IGROV-1; 21.6 µM (inactive) with SF-268; 3.05 µM (inactive) with Malme-3M. The GI50 in the assay with HT-29 was 11.4 µM (inactive); in the assay on MOLT-4, 2.53 µM (inactive); with UACC-257, 3.56 µM (inactive); in the assay on RPMI-8226, 1.74 µM (inactive); in the assay with A549, 20.7 µM (inactive); in the assay with HCC 2998, 19 µM (inactive). In addition, the GI50 is 18.9 µM (inactive) in the assay with SK-MEL-28; 1.74 µM (inactive) in the assay with COLO 205; 27.6 µM (inactive) in the assay with SNB-19; 16.1 µM (inactive) in the assay on SK-MEL-2; 20.3 µM (inactive) with A498; 37.2 µM (inactive) in the assay on SF-295.
With `COC(=O)C12CCC(C)(C)CC1C1=CCC3C4(C)CC(O)C(O)C(C)(C(=O)OC)C4CCC3(C)C1(CO)CC2` (configuration not stated), the GI50 is 15.7 µM (inactive) in the assay on SF-539; 17.4 µM (inactive) with MDA-MB-231; 10.2 µM (inactive) with 786-0; 14.5 µM in the assay on HCT-15; 17.8 µM (inactive) with IGROV-1; 18.5 µM (inactive) in the assay on SF-268. For the same compound, the GI50 in the assay with HT-29 is 13.6 µM (inactive); in the assay with MOLT-4 it was 8.13 µM (inactive); in the assay on NCI-H226, 16.9 µM (inactive); in the assay with UACC-257, 17.2 µM (inactive); with RPMI-8226, 12.1 µM (inactive); in the assay with A549, 13.4 µM (inactive). Besides, the GI50 in the assay on HCC 2998 was 13.9 µM (inactive); in the assay on COLO 205 it was 15.3 µM (inactive); in the assay with SNB-19, 16.6 µM (inactive); in the assay on SK-MEL-2 it was 14 µM (inactive); in the assay on A498, 18.7 µM (inactive); with SF-295, 14.7 µM (inactive).
